Reference: the supplement of paper PMC9763283

Tests used:
Experiment in all cases: area under growth-rate inhibition curve (AUC GRI) (dimensionless (GR-based AUC)); higher = less growth inhibition
Conditions in all cases: exposure time: 72 h; concentrations: 0.1, 1, 10 uM
SKBR3-P = system: SKBR3-P
In short: (§1)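 Six breast cancer cell line models were used: two triple-negative lines, plus parental HER2+ lines and HER2+ lines resistant to a two-drug combination, each plated at an optimised log-phase density and treated with compound at 0.1, 1 or 10 µM for 72 h. After fixation in 4% paraformaldehyde, nuclei were stained with Hoechst 33342 or DAPI, imaged and counted. Growth was corrected using Day 0 plates, untreated Day 3 plates and DMSO controls, with 2 biological replicates. These corrected counts gave the area under the growth-rate inhibition curve.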

MDA-MB-231 = system: MDA-MB-231
In short: as §1

BT474-LTR = system: BT474-LTR
In short: as §1

SKBR3-LTR = system: SKBR3-LTR
In short: as §1

BT474-P = system: BT474-P
In short: as §1

MDA-MB-468 = system: MDA-MB-468
In short: as §1

Compound	area under growth-rate inhibition curve (SKBR3-P)	area under growth-rate inhibition curve (MDA-MB-231)	area under growth-rate inhibition curve (BT474-LTR)	area under growth-rate inhibition curve (SKBR3-LTR)	area under growth-rate inhibition curve (BT474-P)	area under growth-rate inhibition curve (MDA-MB-468)
Br.Cc1ccc(Sc2ccccc2N2CCNCC2)c(C)c1	0.872	0.879	0.912	0.929	0.865	0.885
CC(C)c1cc(-c2ccc(F)c3ccccc23)nc(N)n1	1.03	0.999	1.08	1.07	1.03	1
CCCCOc1ccc(C(=O)Nc2ccc(F)cc2F)cc1	1.01	1.02	1.06	1.05	1.02	1.01
CCCN1CCO[C@H]2c3cc(O)ccc3OC[C@@H]21	1.03	1.02	1.06	1.05	1.08	1.03
CCc1c(C(=O)NCCc2ccc(N3CCCCC3)cc2)[nH]c2ccc(Cl)cc12	0.994	1.02	1.06	1.09	1.04	0.994
Cc1cc(NC(=O)Nc2ccc(N(C)C)cc2)c2cc(F)cc(F)c2n1	1	0.936	0.977	0.958	0.963	0.951
CN1CCC(c2c[nH]c3ccc(O)cc23)CC1	1.02	1	0.996	0.997	0.996	0.984
CN1CCN(C(=O)c2cc3cc(Cl)ccc3[nH]2)CC1	0.993	1.04	1.06	1.05	1.02	1.04
CNCc1ccc(C)c(NC(=O)c2ccc(Nc3nc(-c4ccccc4)c4ccccc4n3)cc2)c1	0.876	0.877	1.08	0.914	0.853	0.856
COc1cc(NC(=O)c2ccccn2)ccc1Cl	0.979	1.05	1.07	1.05	1.01	1.01
COc1cc(OC)c(NC(=O)Nc2cc(C)on2)cc1Cl	1	1.03	1.05	1.06	0.977	1.02
COc1ccc(NS(=O)(=O)c2sc3ccc(Cl)cc3c2C)cc1N1CCNCC1	0.997	1.05	1.03	1.05	0.976	0.964
COc1ccccc1N1CCN(CCN(C(=O)C2CCCCC2)c2ccccn2)CC1.O=C(O)/C=C\C(=O)O	0.976	1.03	1.06	1.04	1.02	0.993
Cc1nc(C#Cc2ccnc(Cl)c2)c(C)n1-c1ccc(OC(F)(F)F)cc1	1	1.03	1.09	0.968	0.969	1
CC1CCN(CCC2CCCN2S(=O)(=O)c2cccc(O)c2)CC1.Cl (stereo unspecified)	1	1.02	1.06	1.05	1.04	1.02
O=C(Nc1cccc(Cl)c1)c1ccccn1	1.01	1.03	1.06	1.04	1.02	1.02
O=C(c1ccc(F)cc1)N1CCC[C@H](c2nc(-c3ccc(F)cc3)no2)C1	1.01	1.01	1.07	1.11	1.02	1.04
Nc1nc(NCCc2ccc(O)cc2)nc2nc(-c3ccco3)nn12	0.822	1.03	1.03	0.956	1.01	0.973
Nc1nc2c(cnn2CCc2ccccc2)c2nc(-c3ccco3)nn12	0.666	1	0.94	0.902	0.99	0.781
O=S(=O)(c1ccccc1)c1cnc2c(N3CCNCC3)cccc2c1	0.997	1.03	1.08	1.05	0.99	1.01
N#Cc1cc(CN2CCC(Nc3ncnc4sc(Cl)cc34)CC2)ccc1F.O=C(O)/C=C\C(=O)O	0.839	0.988	0.875	0.964	0.879	0.885
Cc1ccc(OCC(O)C(C)NC(C)C)c2c1CCC2.[Cl-].[H+] (stereo unspecified)	1.01	1.06	1.11	1.07	1.04	1.05
CCNC1(C(N)=O)CCN(c2ncnc3c2nc(-c2ccccc2Cl)n3-c2ccc(Cl)cc2)CC1.[Cl-].[H+]	1.01	0.999	1.06	1.04	0.991	1
OC(CN1CCN(c2cccc(Cl)c2)CC1)C(c1ccccc1)c1ccccc1.[Cl-].[Cl-].[H+].[H+] (stereo unspecified)	0.982	1.04	1.07	1.05	1.04	0.981
COc1cc2nc(N(C)CCCNC(=O)C3CCCO3)nc(N)c2cc1OC.[Cl-].[H+] (stereo unspecified) [Alfuzosin HCl]	1.01	–	1.09	–	1.03	–
CNCCCN1c2ccccc2CCc2ccccc21.Cl [Desipramine hydrochloride]	–	1.03	0.997	1.06	0.985	–
CCCCC(=O)N(Cc1ccc(-c2ccccc2-c2nnn[nH]2)cc1)[C@H](C(=O)O)C(C)C [Valsartan]	1.02	1.04	1.02	–	0.974	1.04
